Key:
[1] = system: genotype 2a (Jc1 chimera) HCVcc virus; assay: HCV cell-culture (HCVcc) infection assay, Luc-Jc1 luciferase reporter in Huh7/Scr cells; format: cell-based; conditions: for EC50: Hepatitis C virus, Huh-7, 72 h, read-out: EC50 (antiviral activity, HCV infection); for SI (Selectivity Index): calculated from EC50 and CC50
Protocol: (§1) To assess the inhibitory effects of Neosoraphens on HCV infection, a HCV cell-culture (HCVcc) system^[1-3] was used. Unless otherwise stated, Huh7/Scr cells (provided by F. Chisari, The Scripps Research Institute, La Jolla, Calif.) which are highly permissive for HCV propagation in vitro were employed. The experiments were performed in the context of genotype 2a (Jc1 chimera^[4]) HCVcc virus. To facilitate the quantification of infection, the bicistronic Jc1 luciferase reporter construct, designated Luc-Jc1^[5], was used. The commercial ACC inhibitor 5-(Tetradecyloxy)-2-furoic acid (TOFA), which has been previously described to inhibit HCV replication^[6], was chosen for comparison of the antiviral activities of the Neosoraphens. The NS3-4A serine protease inhibitor VX-950^[7], a known HCV replication inhibitor, was used as positive control. Briefly, Huh7/Scr cells were seeded at a density of 1.2×10^4 cells/well in 96-well plates. One day later cells were pre-incubated for 1 h at 37° C. with the compounds and then inoculated with the virus and the compounds for 4 h at 37° C. Finally, virus-containing media was replaced by a fresh media-compounds mix. Firefly luciferase activities were assayed 72 h post infection with the Dual-Glo® Luciferase Assay System while cytotoxicity (viability) assays were carried out with the CytoTox-Glo™ Cytotoxicity Assay (both purchased from Promega Corporation, Madison, Wis.), according to manufacturer's instructions, using a plate luminometer FLUOstar OPTIMA (BMG LABTECH, Ortenberg, Germany). Mean relative light units (RLU) were plotted as percentage relative to control infections (solvent without compounds) for both infectivity and cell viability. Infections were carried out in triplicates and measured in duplicates (mean±SEM; n=6). Half maximal effective concentration (EC50) and half maximal cytotoxic concentration 50 (CC50) were estimated by non-linear regression of log inhibitor vs. normalized response and used to calculate the Selectivity Index (SI) value.

[2] = CytoTox-Glo cytotoxicity (viability) assay; format: cell-based; conditions: human, Huh7/Scr cells, read-out: CC50 (half maximal cytotoxic concentration)
Protocol: as §1

[3] = system: Naive mouse CD4+ T cells under Th17 conditions; assay: Induction of Foxp3+ Treg differentiation in Th17 cultures (flow cytometry); format: cell-based; conditions: 4 days under Th17 conditions, varying concentrations, FIG. 1B
Protocol: (§2) Single cell suspensions were prepared and pooled from the spleen, mesenteric and peripheral lymph nodes of adult C57BL/6 mice by filtering the crushed organs through a 70 μm cell-strainer. Naïve CD4+CD25^−CD62L+ T cells were subsequently isolated from these suspensions using the CD4+CD25^−CD62L+ T cell isolation Kit II and AutoMACS according to the manufacturer's protocol (Miltenyi Biotec) or by FACS sorting. Purified T cells were cultured under classic Th17 inducing conditions (Bettelli et al., Nature 441(7090): 235-8 (2006)). In detail, the cells were cultured in 96 well flat bottom plates (3×10^5 cells per well), that were precoated with 10 μg/ml anti-CD3 Antibody (clone 145-2C11, BioXcell) in the presence of antibodies against CD28 (1 μg/ml, clone 37.51, BioXcell), IFN-γ (5 μg/ml, clone XMG1.2, BioXcell) and IL-4 (5 μg/ml, clone 11B11, BioXcell) as well as in the presence of TGFβ1 (2 ng/ml, R&D), IL-6 (5 ng/ml, R&D) and IL-1β (50 ng/ml, R&D) in IMDM Medium (supplemented with 10% FCS+500 U PenStrep+50 μM β-Mercaptoethanol). To these cultures, increasing concentrations of ACC Inhibitors Soraphen A or 5-(Tetradecyloxy)-2-furoic acid (TOFA) (both dissolved in DMSO) were added on day 0 and cultured for up to 4 days in an cell culture incubator (37° C. and 5% CO2). As control, cells were cultured in the presence of DMSO only.
(§3) Were indicated, cells from Th17 cultures were restimulated with 100 ng/ml phorbol 12-myristate 13-acetate (Sigma) and 1 μg/ml Inonomycin (Sigma) for 4 h and Brefeldin A (1:1000, Sigma) was added for the last 2 h of restimulation. After restimulation, cells were harvested for flow cytometry. For surface staining: fluorophore-labelled mAbs aginst CD3ε and CD4 were obtained from eBiosciences. For intracellular staining, cells were fixed with Fix/Perm (eBioscience) according to the manufacturer's protocol, and stained intracellular with fluorophore-labelled mAbs directed against IL-17A and Foxp3 (eBiosciences). Cells were run on a flow cytometer (CyAn, Beckman Coulter) and data was analysed on FlowJo (TreeStar) software.
(§4) To isolate naive CD4+CD25^−CD62L+ T cells by FACS-sorting, lymphocyte suspensions were surface-stained with fluorophore-labelled mAbs aginst CD4, CD25 and CD62L (all from ebioscience) and live CD4+CD25^−CD62L+ T cells were sorted to >98% purity using a Moflo (Beckman Coulter) or FACS ARIAII (BD Biosciences) cell sorter.
(§5) Naive mouse CD4^+ T cells were cultured for 4 days under Th17 conditions in the presence of varying concentrations of the compounds of the invention. As control, cells were cultured in the presence of DMSO only (negative control) or ACC inhibitor Soraphen A (positive control). After 4 days, cells were restimulated with PMA/Ionomycin for 4 h and Brefeldin A for 2 h and further analysed by flow cytometry.

[4] = system: Naive mouse CD4+ T cells under Th17 conditions; assay: In vitro Th17 differentiation of naive CD4+ T cells (IL-17A+ cells by flow cytometry); format: cell-based; conditions: 4 days under Th17 conditions, FIG. 1A; for percentage of IL-17A producing T-cells (inhibition of Th17 differentiation): varying concentrations
Protocol: as §2, §3, §4, §5

[5] = system: rotavirus (RV); conditions: Gaunt et al., J Gen Virol 2013; cited from earlier work

Row | Compound | EC50 [1] | SI (Selectivity Index) [1] | CC50 at 72 h [2] | differentiation of Foxp3+ Treg cells [3] | percentage of IL-17A producing T-cells (inhibition of Th17 differentiation) [4] | EC50 ([4]; read-out: EC50 for decrease of IL-17A producing T-cells) | reduction of infectivity of progeny rotavirus [5] | reduction of viral RNA production [5]
1 | COC1CCCCC(c2ccccc2)OC(=O)CC2(O)CC(O)C(C)C(O2)C(C)/C=C/C1O (stereo not shown) [Neosoraphen M462] | 0.00774 µM | 1752 | 13.6 µM | induction of Treg differentiation | Inhibition of Th17 | – | – | –
2 | COC1CCCCC(c2ccccc2)OC(=O)CC2(O)CC(O)C(C)C(O2)C(C)CCC1O (stereo not shown) [Neosoraphen M464] | 0.046 µM | 1136 | 52.2 µM | induction of Treg differentiation | Inhibition of Th17 | – | – | –
3 | COC1/C=C/C(C)C2OC(O)(CC(=O)OC(c3ccccc3)CCCCC1OC)CC(O)C2C (stereo not shown) [Neosoraphen M476] | 0.00209 µM | 95072 | 199 µM | induction of Treg differentiation | Inhibition of Th17 | – | – | –
4 | COC1CCCCC(c2ccccc2)OC(=O)CC2(O)CC(O)C(C)C(O2)C(C)CCC1OC (stereo not shown) [Neosoraphen M478] | 0.00152 µM | 64961 | 98.7 µM | induction of Treg differentiation | Inhibition of Th17 | – | – | –
5 | COC1CCCCC(c2ccccc2)OC(=O)CC2(O)CC(O)C(C)C(O2)C(C)C(O)CC1O (stereo not shown) [Neosoraphen M480] | 0.0657 µM | 693 | 45.5 µM | – | – | – | – | –
6 | CO[C@H]1CCCC[C@@H](c2ccccc2)OC(=O)[C@@H](C)[C@@]2(O)O[C@H]([C@@H](C)[C@H](O)[C@H]2OC)[C@@H](C)/C=C/[C@H]1OC [Soraphen A, reference compound] | – | – | – | induces the reciprocal differentiation of Foxp3+ Treg cells | decreases the percentage of IL-17A producing T-cells in a dose dependent manner | 0.04 µM | – | –
7 | CCCCCCCCCCCCCCOc1ccc(C(=O)O)o1 [TOFA, 5-(Tetradecyloxy)-2-furoic acid, reference compound] | 1.01 µM | 34 | 33.9 µM | – | – | – | 31 fold | 6 fold
8 | CCC[C@H](NC(=O)[C@@H]1[C@H]2CCC[C@H]2CN1C(=O)[C@@H](NC(=O)[C@@H](NC(=O)c1cnccn1)C1CCCCC1)C(C)(C)C)C(=O)C(=O)NC1CC1 [VX-950, reference compound] | 0.0189 µM | 4995 | 94.5 µM | – | – | – | – | –
